# Test results published in US10238631B2, “Sesquiterpene derivatives and their use in inflammation or cancer treatment” (Academia Sinica, priority 2014, dated 2019).
# Several values for one entry are separate records, joined by “and”; a condition that tells them apart may be missing. Equal values may be shown once. Read-outs that look alike come from different tables or passages of the source.
# Assays:
# [1] = test system: MDA-MB-231 cells
# Experimental: Briefly, cells (5×10^3 cells/well) were seeded in 96-well plates and treated with BSO at concentrations 100 μM, 45 μM, 18 μM, 7.2 μM, 2.8 μM, 1.15 μM, 461 nM, 184 nM, 74 nM and 29 nM, and sulfasalazine at concentrations 62.75 μM, 25.10 μM, 10 μM, 4 μM, 1.6 μM, 642 nM, 257 nM, 102 nM, 41 nM and 16.4 nM for 30 h, and then 12 μM DET or 3 μM DETD-35 were added in the cultural medium to treat the cells for another 24 h. Cell proliferation was measured by MIT assay.
# [2] = test system: TS/A (ER+, Her2−) murine mammary cancer cells; assay: MTT cell viability assay, TS/A cells; format: cell-based; conditions: Mus musculus
# Procedure, shortened: (§1)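 Cells (2×10^3 to 1×10^4 cells/well) were seeded overnight, then exposed to compounds for 24 h to 72 h. Growth was measured by MTT colorimetric assay, with viability calculated as OD570 of treated over vehicle (0.5% DMSO) control ×100.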
# [3] = test system: B16-F10 (NRAS mutation); assay: MTT cell viability assay, B16-F10 melanoma; format: cell-based; conditions: Mus musculus, B16-F10, 24 h
# Procedure, shortened: (§2)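 Cells seeded at 2×10^3 to 1×10^4 cells/well overnight, then exposed to compounds for 24 h to 72 h. Growth measured by MTT colorimetric assay; viability expressed as OD570 treated/OD570 vehicle (0.5% DMSO) ×100.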
# [4] = test system: U937 lymphoma line; assay: MTT cell viability assay, U937; format: cell-based; conditions: Homo sapiens, U-937, 24 h
# Experimental: (§3) Normal or cancer cells (2×10^3 to 1×10^4 cells/well) were seeded in 96-well plate for overnight and treated with different compounds for 24 h to 72 h. Cells growth were determined by MTT-based colorimetric assays according to. Viability of the test cells treated with vehicle (0.5% DMSO) only was defined as 100% viable. Survival of cells after treatment with DETDs was calculated using the following formula: viable cell number (%)=OD570 (treated cell culture)/OD570 (vehicle control)×100.
# (§4) Based on toxicity results of DET and DETDs on different breast cancer and melanoma cell lines, we selected DETD-6, -32, -35 and -39, under the consideration of structure activity relationship for evaluating their suppression effect against other cancer types of cell line with indicated tumor origin in Table 5. […] The cells were treated with compounds for 24 h and then subjected to MTT assays.
# [5] = test system: A375 (BRAF mutation); assay: MTT cell viability assay, A375 melanoma; format: cell-based, human; conditions: Homo sapiens, MTT
# Procedure, shortened: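 A375 cells were seeded at 2×10^3 to 1×10^4 per well overnight and then exposed to compounds for 24 h to 72 h. Viability was measured by MTT absorbance at OD570 relative to 0.5% DMSO vehicle (100%), and IC50 was derived from it. Combination with PLX4032 was scored by combination index.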
# [6] = test system: PC6 lung cancer cell line; assay: MTT cell viability assay, PC6; format: cell-based; conditions: 24 h
# Experimental: as §3, §4
# [7] = test system: melanoma cell lines B16-F10, MeWo, A375, A2058, HTB-68; assay: MTT cell viability assay, all melanoma cell lines; format: cell-based; conditions: 24 h, read-out: IC50 values over all types of melanoma cell lines
# Procedure, shortened: as §2
# [8] = test system: PC3 (Prostate); assay: MTT cell viability assay, PC3; format: cell-based; conditions: 24 h
# Experimental: as §3, §4
# [9] = test system: MDA-MB-231 (ER−, PR−, Her2−) human breast cancer cells; assay: MTT cell viability assay, MDA-MB-231 cells; format: cell-based; conditions: for IC50: Homo sapiens
# Procedure, shortened: as §1
# [10] = test system: MDA-MB-231 cells; assay: Compound-drug combination assay with PTX; format: cell-based, human; conditions: 0-4 μM compound, 0-25 nM PTX
# Experimental: Cell proliferation was measured by MTT assay. Isobologram analysis and Chou-Talalay method was used to determine the effects of compound drug combinations. The interaction of DETDs and PLX4032 or PTX was determined by the combination index (CI), and the CI plot was generated using CompuSyn software. The combined effects of two compounds can be categorized as follows: CI=1 indicates additive interaction, CI<1 indicates synergism, and CI>1 indicates antagonism.
# To investigate whether or not DETD-35 and DETD-39 act synergistically with PTX against MDA-MB-231 cell activity, anti-proliferation assay using MTT reagent was performed to obtain the IC60 value of each compound. […] Based on the IC60 values, DETD-35 or DETD-39 ranging from 0 to 4 μM and PIX from 0 to 25 nM were used for compound-drug combination study. Classic isobologram analysis and Chou-Talalay method were conducted to investigate the synergistic effect of compound and drug. Combination index (CI) was calculated with CalcuSyn software (Version 2.0, Biosoft) and expressed as CI vs. Fa (fraction affected). CI<1 indicates synergy; CI=1 indicates additive effect; and CI>1 indicates antagonism.
# [11] = test system: LPS-induced nitric oxide (NO) production in RAW 264.7 cells; assay: Nitric oxide production in LPS-stimulated macrophages (Griess); format: cell-based, mouse
# Procedure, shortened: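 RAW 264.7 macrophages (2×10^5 cells/well) were pretreated with compound for 1 h and then stimulated with 100 ng/μL LPS for 24 h. NO was measured as nitrite in the medium by the Griess reaction. Viability was checked in parallel by MTT.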
# [12] = test system: A2058 (BRAF mutation); assay: MTT cell viability assay, A2058 melanoma; format: cell-based, human; conditions: Homo sapiens, A2058, 24 h
# Procedure, shortened: as §2
# [13] = test system: NES-SA uterus cancer cell line; assay: MTT cell viability assay, NES-SA; format: cell-based; conditions: 24 h
# Experimental: as §3, §4
# [14] = test system: A498 kidney cancer cell line; assay: MTT cell viability assay, A498; format: cell-based; conditions: Homo sapiens, 24 h
# Experimental: as §3, §4
# [15] = test system: HCT-116 colon cancer cell line; assay: MTT cell viability assay, HCT-116; format: cell-based; conditions: Homo sapiens, 24 h
# Experimental: as §3, §4
# [16] = test system: RAW264.7 (normal macrophage); assay: MTT cell viability assay, RAW264.7 macrophages; format: cell-based, mouse; conditions: Mus musculus, RAW264.7, 24 h
# Procedure, shortened: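 RAW264.7 macrophages (2×10^5 cells/well) pretreated with compounds 1 h, then incubated 24 h with or without 100 ng/μL LPS. Viability by MTT colorimetric assay run in parallel with Griess nitrite measurement.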
# [17] = test system: MeWo (No NRAS or BRAF mutation); assay: MTT cell viability assay, MeWo melanoma; format: cell-based, human; conditions: Homo sapiens, MeWo, 24 h
# Procedure, shortened: as §2
# [18] = test system: M10 normal mammary epithelial cells; assay: MTT cell viability assay, M10 normal cells; format: cell-based, human; conditions: 24 h
# Procedure, shortened: as §1
# [19] = test system: SK-N-MC neuroepithelioma line; assay: MTT cell viability assay, SK-N-MC; format: cell-based; conditions: Homo sapiens, 24 h
# Experimental: as §3, §4
# [20] = test system: HTB-68 (NRAS mutation); assay: MTT cell viability assay, HTB-68 melanoma; format: cell-based, human; conditions: Homo sapiens, 24 h
# Procedure, shortened: as §2
# [21] = test system: Melanocyte (Normal cells); assay: MTT cell viability assay, normal melanocytes; format: cell-based, human; conditions: Homo sapiens, Melanocyte, 24 h
# Procedure, shortened: as §2
# [22] = test system: U-87MG brain cancer cell line; assay: MTT cell viability assay, U-87MG; format: cell-based; conditions: Homo sapiens, 24 h
# Experimental: as §3, §4
# [23] = test system: MCF-7 (ER+, Her2−) human breast cancer cells; assay: MTT cell viability assay, MCF-7 cells; format: cell-based
# Procedure, shortened: as §1
# [24] = test system: KATO III stomach cancer cell line; assay: MTT cell viability assay, KATO III; format: cell-based; conditions: Homo sapiens, 24 h
# Experimental: as §3, §4
# [25] = test system: A375-R PLX4032-resistant melanoma tumor; assay: A375-R melanoma xenograft model in NOD/SCID mice; format: in vivo, mouse; conditions: PLX4032 75 mg/kg
# Experimental: (§5) A375 and A375-R melanoma cells (3×10^6) were injected subcutaneously to the flanks of the six weeks old NOD/SCID mice. One week after the inoculation, the mice were randomized into treated groups (n=8 per group) and the treatments were started. Body weight and tumor volume of the mice were recorded every three days using formula a×b^2×0.5, where a and b represented the larger and smaller tumor diameters.
# To study whether or not DETD-35 could overcome acquired resistance to BRAF inhibitor, we generated A375 cell line resistant to PLX4032 (designated A375-R) as described above. We then conducted A375-R orthotopic xenograft study.
# [26] = test system: A375 human melanoma tumor; assay: A375 melanoma xenograft model in NOD/SCID mice; format: in vivo, mouse; conditions: 20 mg/kg i.p.; PLX4032 every day, DET and DETD-35 every two days
# Experimental: as §5
# We used A375 human melanoma xenograft model to evaluate the in vivo bioefficacy of DET. DETD-35, PLX4032 and compound drug combination. […] For single compound or drug treatment group, PLX4032 was administered i.p. every day and DET and DETD-35 were administered i.p. every two days. For combination treatment, PLX4032 was administered every two days while DET and DETD-35 were administered every four days. […] Compound-drug combinational treatments were carried out with alternative administration of DET (20 mg/kg) or DETD-35 (20 mg/kg) and PLX4032 (20 mg/kg) by which DET or DETD-35 and PLX4032 treatment frequency were only half of the single compound or drug administration alone.
# [27] = test system: DMBA/TPA-induced skin papillomas accelerated by PLX4032
# Experimental: Dorsal skin of six weeks old female FVB/N mice were shaved and treated with topical application of DMBA (25 μg in 100 μL acetone). One week after DMBA treatment, the same skin area were treated topically twice weekly with 12-O-tetradecanoylphorbol-13-acetate (TPA) (4 μg in 100 μL acetone). The area was regularly shaved and tumor formation was assessed twice weekly, and tumors were defined as raised lesions of a minimum diameter of 1 mm.
# [28] = test system: A375-R acquired vemurafenib resistance melanoma cells; assay: MTT cell viability assay, PLX4032-resistant A375-R; format: cell-based, human; conditions: 72 h
# Experimental: A375-R, acquired vemurafenib resistance melanoma cell was generated from A375 parental cell and grown in same conditions as A375 cell.
# as §3
# To study the mechanisms underlying how DETD-35 overcomes acquired resistance to BRAF inhibitor, we generated A375 cell line resistant to PLX4032 (designated A375-R). Briefly, A375 melanoma cells were seeded in T75 plate and treated with ascending concentration of PLX4032 (20, 50, 100, 250, 500, 1000, 2000 nM) through approximately 2 months and 20 passages.
# [29] = DMBA/TPA + PLX4032 20 mg/kg i.p. twice per week
structure (smiles),measurement,setting,value
"CCCCS(=N)(=O)CCC(N)C(=O)O (stereo not shown) [BSO, buthionine sulfoximine]",cytotoxicity of blocker alone,[1],did not show any cytotoxicity
C=C1C(=O)OC2CC3=C[C@@H](C/C(C)=C/C(OC(=O)/C=C/c4cccc(OC)c4)[C@H]12)OC3=O (stereo partly shown) [DETD-39],IC50,"[2]; 24 h, read-out: IC50 on cell viability, TS/A (ER+, Her2−)",800 nM
same,IC50,"[2]; Table 5, 24 h, read-out: IC50 viability TS/A (mouse) (Breast)",800 nM
same,IC50,"[3]; 24 h, read-out: IC50 on cell viability, B16-F10 (NRAS mutation)",1700 nM
same,IC50,"[3]; Table 5, 24 h, read-out: IC50 viability B16-F10 (mouse) (Skin)",1700 nM
same,IC50,[4],100 nM
same,IC50,"[5]; A-375, 24 h, 24 h, read-out: IC50 on cell viability, A375 (BRAF mutation)",1600 nM
same,IC50,[6],110 nM
same,IC50,[7],1600 to 9900 nM and 1600 to 3500 nM
same,IC50,[8],2600 nM
same,IC60 on MDA-MB-231 cells,[9]; 24 h,3790 nM
same,IC50,"[9]; MDA-MB-231, 24 h, read-out: IC50 on cell viability, MDA-MB-231 (ER−, PR−, Her2−)",1900 nM
same,IC50,"[9]; MDA-MB-231, Table 5, 24 h, read-out: IC50 viability MDA-MB-231 (Breast)",1900 nM
same,"combination effect with PTX (isobologram, combination index)",[10],acted synergistically
same,fold decrease in IC50 of NO production vs DET,[11],3 fold
same,IC50,"[11]; Mus musculus, LPS-stimulated RAW264.7, nitrite 24 h after LPS",1000 nM
same,IC50,[12],2400 nM
same,IC50,[13],140 nM
same,IC50,[14],480 nM
same,IC50,[15],100 nM
same,IC50,[16],3500 nM
same,IC50,[17],3500 nM
same,"IC50 on cell viability, M10 (normal)",[18],some toxicity
same,IC50,"[18]; Homo sapiens, Epithelial cell",3700 nM
same,IC50,[19],110 nM
same,IC50,[20],3200 nM
same,IC50,[21],9000 nM
same,IC50,[22],150 nM
same,IC50,"[23]; MCF7, 24 h, read-out: IC50 on cell viability, MCF-7 (ER+, Her2−)",2100 nM
same,IC50,"[23]; MCF7, Table 5, 24 h, read-out: IC50 viability MCF-7 (Breast)",2400 nM
same,IC50,[24],290 nM
"CCCS(=O)(=O)Nc1ccc(F)c(C(=O)c2c[nH]c3ncc(-c4ccc(Cl)cc4)cc23)c1F [PLX4032, Vemurafenib]",tumor growth rate and size relative to control group (100%),[25],98%
same,IC50,"[5]; A-375, 72 h, 72 h, read-out: IC50 on A375 cells",70 nM
same,reduction of tumor mass vs tumor control,[26],71.9%
same,start of papillomas formation,"[27]; DMBA-TPA treated mice + PLX4032, without PLX4032 week 6 to 7",3 to 4 weeks
same,papillomas size in average,[27]; [29],77.6 mm^3
same,total papillomas number,[27]; [29],25.6
same,"fold less sensitive, A375-R vs parental A375",[28],more than 100 fold
same,IC50,"[28]; Homo sapiens, MTT",8300 nM
O=C(O)c1cc(/N=N/c2ccc(S(=O)(=O)Nc3ccccn3)cc2)ccc1O [sulfasalazine],cytotoxicity of blocker alone,[1],did not show any cytotoxicity
